Test system: CaCo-2 cells
Experiment: Effects of kinase inhibitors on N-(3-oxododecanoyl)-L-homoserine lactone-dependent apoptosis, viability by Trypan blue staining
Format: cell-based, human
Conditions: then 30 μM N-(3-oxododecanoyl)-L-homoserine lactone, 12 hours
Protocol: 2×10^5 CaCo-2 cells were inoculated per 3.5 cm dish, cultured for 12 hours in the presence of 10% serum, washed twice with PBS (-), and then synchronously cultured in a serum-free medium for 24 hours. Pretreatment with various inhibitors (50 μM PD98059 and 20 μM SB203580) or DMSO was carried out for 30 minutes. Then 30 μM N-(3-oxododecanoyl)-L-homoserine lactone or DMSO was added, the cells were cultured for 12 hours, and then viability was measured by Trypan blue staining.

Structure (SMILES)	effect of pretreatment on viability (50 μM pretreatment 30 minutes)	viability at 20 µM (Homo sapiens, 20 μM pretreatment 30 minutes) [%]
COc1cccc(-c2cc(=O)c3ccccc3o2)c1N [PD98059]	no effect	
C[S+]([O-])c1ccc(-c2nc(-c3ccncc3)c(-c3ccc(F)cc3)[nH]2)cc1 (centres unmarked) [SB203580]		35

From patent US7537906B2, “Apoptosis inducer and method of screening for a substance inhibiting acylated homoserine lactone” (priority 2003, dated 2009)
